According to the NIST ThermoML archive (doi:10.1016/j.jct.2007.11.001):
± gives the expanded uncertainty stated by the source.

Assay: Molar enthalpy of transition or fusion
Conditions: Crystal 2; Adiabatic calorimetry

Molar enthalpy of transition or fusion: 0.0648 ± 0.00598 kcal/mol
Compound: O=P([O-])([O-])[O-].[Cs+].[Mg+2] [caesium-magnesium monophosphate]
